Measurements: the kinase profiling compilation of Christmann-Franck et al. (2016)

Legend:
Assay in all cases: radiometric filter-binding kinase assay, Kinase HotSpot
Conditions in all cases: compound 0.5 µM; ATP 10 µM
[1] = molecular target: BRSK1 (human) (UniProt Q8TDC3)
[2] = molecular target: CAMK2B (human) (UniProt Q13554)
[3] = molecular target: CAMK4 (human) (UniProt Q16566)
[4] = molecular target: CDK3 CCNE1 (human) (UniProt Q00526+P24864)
[5] = molecular target: CDK6 CCND3 (human) (UniProt P30281+Q00534)
[6] = molecular target: EGFR (human) (UniProt P00533)
[7] = molecular target: EPHA5 (human) (UniProt P54756)
[8] = molecular target: GSK3A (human) (UniProt P49840)
[9] = molecular target: IKBKB (human) (UniProt O14920)
IKBKB (human), sequence (O14920 whole entry, looked up): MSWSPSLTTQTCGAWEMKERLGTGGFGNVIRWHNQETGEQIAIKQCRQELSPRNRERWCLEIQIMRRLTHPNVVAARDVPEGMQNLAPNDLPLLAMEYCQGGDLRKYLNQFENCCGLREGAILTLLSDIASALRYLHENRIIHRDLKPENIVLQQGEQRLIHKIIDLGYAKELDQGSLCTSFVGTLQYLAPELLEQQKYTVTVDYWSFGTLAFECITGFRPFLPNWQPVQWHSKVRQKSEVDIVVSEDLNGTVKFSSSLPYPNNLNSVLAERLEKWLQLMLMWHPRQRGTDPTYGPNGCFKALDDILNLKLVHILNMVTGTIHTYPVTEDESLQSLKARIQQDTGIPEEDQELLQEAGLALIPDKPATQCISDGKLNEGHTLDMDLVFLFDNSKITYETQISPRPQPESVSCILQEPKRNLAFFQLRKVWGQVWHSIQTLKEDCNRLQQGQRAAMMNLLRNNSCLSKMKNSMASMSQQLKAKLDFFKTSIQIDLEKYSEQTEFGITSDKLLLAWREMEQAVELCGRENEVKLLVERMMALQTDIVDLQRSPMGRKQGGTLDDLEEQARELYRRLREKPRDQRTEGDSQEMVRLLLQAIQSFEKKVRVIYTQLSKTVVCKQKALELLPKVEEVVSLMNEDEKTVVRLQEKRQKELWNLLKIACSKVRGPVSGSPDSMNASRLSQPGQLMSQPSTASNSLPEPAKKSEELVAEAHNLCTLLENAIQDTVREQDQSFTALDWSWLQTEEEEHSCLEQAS

[10] = molecular target: ITK (human) (UniProt Q08881)
[11] = molecular target: JAK1 JH1 catalytic (human) (UniProt P23458)
[12] = molecular target: MAP2K2 (human) (UniProt P36507)
[13] = molecular target: MAP3K10 (human) (UniProt Q02779)
[14] = molecular target: MAP4K4 (human) (UniProt O95819)
[15] = molecular target: MAP4K5 (human) (UniProt Q9Y4K4)
[16] = molecular target: MAPKAPK2 (human) (UniProt P49137)
[17] = molecular target: MATK (human) (UniProt P42679)
[18] = molecular target: MINK1 (human) (UniProt Q8N4C8)
MINK1 (human), sequence (Q8N4C8 whole entry, looked up): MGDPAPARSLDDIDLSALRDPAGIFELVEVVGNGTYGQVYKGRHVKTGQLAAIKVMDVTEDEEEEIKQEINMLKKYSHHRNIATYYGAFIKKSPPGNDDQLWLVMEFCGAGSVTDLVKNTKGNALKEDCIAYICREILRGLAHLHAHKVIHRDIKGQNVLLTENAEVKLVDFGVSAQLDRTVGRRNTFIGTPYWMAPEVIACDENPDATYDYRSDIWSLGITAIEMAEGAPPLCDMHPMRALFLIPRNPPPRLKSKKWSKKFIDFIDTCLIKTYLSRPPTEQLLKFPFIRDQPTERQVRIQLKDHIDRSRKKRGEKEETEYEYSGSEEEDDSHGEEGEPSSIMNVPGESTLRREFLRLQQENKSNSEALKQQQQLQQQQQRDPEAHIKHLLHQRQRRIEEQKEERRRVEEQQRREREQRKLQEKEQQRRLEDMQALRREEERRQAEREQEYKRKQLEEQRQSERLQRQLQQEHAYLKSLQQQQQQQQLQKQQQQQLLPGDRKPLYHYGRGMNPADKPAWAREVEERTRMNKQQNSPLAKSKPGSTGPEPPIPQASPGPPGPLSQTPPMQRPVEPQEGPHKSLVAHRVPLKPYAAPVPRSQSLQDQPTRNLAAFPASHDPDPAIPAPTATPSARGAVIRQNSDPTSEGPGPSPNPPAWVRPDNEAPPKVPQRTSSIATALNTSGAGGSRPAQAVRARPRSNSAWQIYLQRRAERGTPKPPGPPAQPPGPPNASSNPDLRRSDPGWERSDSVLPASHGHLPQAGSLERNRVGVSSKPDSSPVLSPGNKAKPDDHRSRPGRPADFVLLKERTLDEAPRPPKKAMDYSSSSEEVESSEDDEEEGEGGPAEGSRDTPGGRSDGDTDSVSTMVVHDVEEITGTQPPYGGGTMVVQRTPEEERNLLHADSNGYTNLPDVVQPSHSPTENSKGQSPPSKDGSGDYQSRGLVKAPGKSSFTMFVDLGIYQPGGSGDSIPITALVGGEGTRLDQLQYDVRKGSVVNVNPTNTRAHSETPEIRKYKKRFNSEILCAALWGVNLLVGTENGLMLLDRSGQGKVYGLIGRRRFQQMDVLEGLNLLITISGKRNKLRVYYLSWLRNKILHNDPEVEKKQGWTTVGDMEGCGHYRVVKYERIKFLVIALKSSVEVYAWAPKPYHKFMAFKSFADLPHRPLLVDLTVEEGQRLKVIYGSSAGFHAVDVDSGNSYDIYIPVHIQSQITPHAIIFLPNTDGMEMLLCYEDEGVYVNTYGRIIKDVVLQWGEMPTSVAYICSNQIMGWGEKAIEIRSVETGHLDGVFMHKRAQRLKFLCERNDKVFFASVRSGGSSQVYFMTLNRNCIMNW

[19] = molecular target: MST1R (human) (UniProt Q04912)
[20] = molecular target: MUSK (human) (UniProt O15146)
[21] = molecular target: NEK1 (human) (UniProt Q96PY6)
[22] = molecular target: OXSR1 (human) (UniProt O95747)
[23] = molecular target: PASK (human) (UniProt Q96RG2)
PASK (human), sequence (Q96RG2 whole entry, looked up): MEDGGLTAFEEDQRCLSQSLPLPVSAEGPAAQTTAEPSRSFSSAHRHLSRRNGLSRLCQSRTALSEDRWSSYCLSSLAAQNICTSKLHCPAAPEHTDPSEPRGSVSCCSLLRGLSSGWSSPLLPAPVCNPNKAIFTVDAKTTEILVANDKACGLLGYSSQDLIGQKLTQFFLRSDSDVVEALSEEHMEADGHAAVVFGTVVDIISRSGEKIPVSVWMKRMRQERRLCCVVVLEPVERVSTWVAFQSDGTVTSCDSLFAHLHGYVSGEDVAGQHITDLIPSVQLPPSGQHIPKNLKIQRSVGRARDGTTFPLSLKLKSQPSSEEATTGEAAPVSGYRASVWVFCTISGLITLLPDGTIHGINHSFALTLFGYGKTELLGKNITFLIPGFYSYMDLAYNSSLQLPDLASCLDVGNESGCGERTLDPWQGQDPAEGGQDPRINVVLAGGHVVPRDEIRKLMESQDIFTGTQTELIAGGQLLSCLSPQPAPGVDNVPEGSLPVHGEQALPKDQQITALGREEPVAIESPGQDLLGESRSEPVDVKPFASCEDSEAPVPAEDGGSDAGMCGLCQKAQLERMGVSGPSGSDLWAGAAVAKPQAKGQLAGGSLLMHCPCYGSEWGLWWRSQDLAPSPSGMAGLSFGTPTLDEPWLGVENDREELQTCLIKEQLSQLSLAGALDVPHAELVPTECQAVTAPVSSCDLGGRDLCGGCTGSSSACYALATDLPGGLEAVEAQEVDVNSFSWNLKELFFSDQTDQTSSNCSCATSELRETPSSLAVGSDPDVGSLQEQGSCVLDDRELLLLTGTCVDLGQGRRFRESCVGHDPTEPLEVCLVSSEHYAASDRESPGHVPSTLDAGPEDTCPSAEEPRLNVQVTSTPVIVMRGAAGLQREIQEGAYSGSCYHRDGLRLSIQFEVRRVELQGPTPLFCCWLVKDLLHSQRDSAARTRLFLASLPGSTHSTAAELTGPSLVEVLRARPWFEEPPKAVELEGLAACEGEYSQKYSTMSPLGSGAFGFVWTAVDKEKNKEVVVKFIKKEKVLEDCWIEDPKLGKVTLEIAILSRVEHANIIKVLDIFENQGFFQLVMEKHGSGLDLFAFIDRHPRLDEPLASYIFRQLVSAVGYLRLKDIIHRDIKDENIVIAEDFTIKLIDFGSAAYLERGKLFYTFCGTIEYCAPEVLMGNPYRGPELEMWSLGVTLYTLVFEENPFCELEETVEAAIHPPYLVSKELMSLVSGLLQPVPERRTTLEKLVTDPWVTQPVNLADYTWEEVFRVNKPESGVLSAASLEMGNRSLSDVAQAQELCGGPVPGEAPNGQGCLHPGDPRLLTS

[24] = molecular target: PIM2 (human) (UniProt Q9P1W9)
PIM2 (human), sequence (Q9P1W9 whole entry, looked up): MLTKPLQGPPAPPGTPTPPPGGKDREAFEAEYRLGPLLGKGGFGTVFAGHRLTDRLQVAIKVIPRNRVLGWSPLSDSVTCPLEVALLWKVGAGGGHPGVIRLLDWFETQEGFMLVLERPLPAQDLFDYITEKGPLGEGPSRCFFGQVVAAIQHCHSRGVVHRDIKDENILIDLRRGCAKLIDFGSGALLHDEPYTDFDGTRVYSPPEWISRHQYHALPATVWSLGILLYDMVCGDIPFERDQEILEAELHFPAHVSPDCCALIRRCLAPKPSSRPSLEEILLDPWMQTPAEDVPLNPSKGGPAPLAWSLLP

[25] = molecular target: PIM3 (human) (UniProt Q86V86)
[26] = molecular target: PRKCA (human) (UniProt P17252)
[27] = molecular target: PRKCI (human) (UniProt P41743)
PRKCI (human), sequence (P41743 whole entry, looked up): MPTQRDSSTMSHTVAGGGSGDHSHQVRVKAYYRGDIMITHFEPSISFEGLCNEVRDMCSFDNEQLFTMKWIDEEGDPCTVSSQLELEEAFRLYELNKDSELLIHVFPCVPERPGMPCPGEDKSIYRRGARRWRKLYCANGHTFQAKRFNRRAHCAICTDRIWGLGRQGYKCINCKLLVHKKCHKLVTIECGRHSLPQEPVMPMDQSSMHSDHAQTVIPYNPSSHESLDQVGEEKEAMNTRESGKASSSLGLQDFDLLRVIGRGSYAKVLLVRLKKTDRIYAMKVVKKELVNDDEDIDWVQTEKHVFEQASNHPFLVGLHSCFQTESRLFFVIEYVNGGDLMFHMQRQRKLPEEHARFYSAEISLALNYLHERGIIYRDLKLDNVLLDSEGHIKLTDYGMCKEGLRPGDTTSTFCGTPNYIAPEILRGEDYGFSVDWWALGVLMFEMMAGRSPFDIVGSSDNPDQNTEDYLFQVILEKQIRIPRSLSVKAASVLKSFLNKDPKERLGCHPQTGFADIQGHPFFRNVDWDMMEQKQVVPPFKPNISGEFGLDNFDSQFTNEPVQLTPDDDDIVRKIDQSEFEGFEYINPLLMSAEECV

[28] = molecular target: PRKG2 (human) (UniProt Q13237)
[29] = molecular target: RET (human) (UniProt P07949)
[30] = molecular target: RIPK2 (human) (UniProt O43353)
[31] = molecular target: RPS6KA1 KD1 KD2 (human) (UniProt Q15418)
[32] = molecular target: RPS6KA2 KD1 KD2 (human) (UniProt Q15349)
[33] = molecular target: SGK3 (human) (UniProt Q96BR1)
[34] = molecular target: SIK2 (human) (UniProt Q9H0K1)
[35] = molecular target: STK3 (human) (UniProt Q13188)
[36] = molecular target: TEK (human) (UniProt Q02763)
[37] = molecular target: TSSK1B (human) (UniProt Q9BXA7)
[38] = molecular target: TYRO3 (human) (UniProt Q06418)
[39] = molecular target: ULK2 (human) (UniProt Q8IYT8)
[40] = molecular target: CSF1R (human) (UniProt P07333)
[41] = molecular target: FES (human) (UniProt P07332)
[42] = molecular target: MAPK10 (human) (UniProt P53779)

## Cc1ccc(Nc2nccc(N(C)c3ccc4c(C)n(C)nc4c3)n2)cc1S(N)(=O)=O
[1]
  residual activity: 97.2%
[2]
  residual activity: 95.5%
[3]
  residual activity: 95.9%
[4]
  residual activity: 93.5%
[5]
  residual activity: 96.1%
[6]
  residual activity: 91%
[7]
  residual activity: 99.7%
[8]
  residual activity: 101%
[9]
  residual activity: 86.9%
[10]
  residual activity: 115%
[11]
  residual activity: 104%
[12]
  residual activity: 94.8%
[13]
  residual activity: 28.5%
[14]
  residual activity: 77.4%
[15]
  residual activity: 30.3%
[16]
  residual activity: 99.6%
[17]
  residual activity: 104%
[18]
  residual activity: 73.7%
[19]
  residual activity: 97.8%
[20]
  residual activity: 95.1%
[21]
  residual activity: 105%
[22]
  residual activity: 103%
[23]
  residual activity: 101%
[24]
  residual activity: 101%
[25]
  residual activity: 81.6%
[26]
  residual activity: 94.4%
[27]
  residual activity: 96.1%
[28]
  residual activity: 96%
[29]
  residual activity: 25.7%
[30]
  residual activity: 68.2%
[31]
  residual activity: 92.8%
[32]
  residual activity: 93.2%
[33]
  residual activity: 97.5%
[34]
  residual activity: 84.1%
[35]
  residual activity: 95.4%
[36]
  residual activity: 69.3%
[37]
  residual activity: 99%
[38]
  residual activity: 92%
[39]
  residual activity: 102%

## N#CC(C#N)=C(N)/C(C#N)=C/c1ccc(O)cc1
[1]
  residual activity: 99.2%
[2]
  residual activity: 93.3%
[3]
  residual activity: 97.2%
[4]
  residual activity: 96.8%
[5]
  residual activity: 100%
[40]
  residual activity: 98%
[7]
  residual activity: 94.3%
[41]
  residual activity: 101%
[8]
  residual activity: 91.1%
[9]
  residual activity: 102%
[10]
  residual activity: 98.7%
[11]
  residual activity: 99.4%
[12]
  residual activity: 103%
[13]
  residual activity: 98%
[14]
  residual activity: 91.2%
[15]
  residual activity: 99.6%
[42]
  residual activity: 98.8%
[16]
  residual activity: 91.3%
[17]
  residual activity: 92.5%
[18]
  residual activity: 97.7%
[19]
  residual activity: 102%
[20]
  residual activity: 103%
[21]
  residual activity: 95.7%
[22]
  residual activity: 72.2%
[23]
  residual activity: 82.9%
[24]
  residual activity: 88.2%
[25]
  residual activity: 91.3%
[26]
  residual activity: 97.4%
[27]
  residual activity: 97.4%
[28]
  residual activity: 86.9%
[29]
  residual activity: 110%
[30]
  residual activity: 95.5%
[31]
  residual activity: 93.8%
[32]
  residual activity: 96.2%
[33]
  residual activity: 103%
[34]
  residual activity: 87.7%
[35]
  residual activity: 95.2%
[36]
  residual activity: 104%
[37]
  residual activity: 111%
[38]
  residual activity: 99.3%
[39]
  residual activity: 105%

## CC#CC(=O)Nc1cc2c(Nc3ccc(F)c(Cl)c3)ncnc2cn1
[1]
  residual activity: 102%
[2]
  residual activity: 99.6%
[3]
  residual activity: 97.4%
[4]
  residual activity: 96.8%
[5]
  residual activity: 103%
[40]
  residual activity: 101%
[7]
  residual activity: 101%
[41]
  residual activity: 99.4%
[8]
  residual activity: 104%
[9]
  residual activity: 102%
[10]
  residual activity: 76.3%
[11]
  residual activity: 104%
[12]
  residual activity: 106%
[13]
  residual activity: 98.9%
[14]
  residual activity: 110%
[15]
  residual activity: 100%
[42]
  residual activity: 85.4%
[16]
  residual activity: 104%
[17]
  residual activity: 95.8%
[18]
  residual activity: 91.9%
[19]
  residual activity: 104%
[20]
  residual activity: 79.6%
[21]
  residual activity: 105%
[22]
  residual activity: 109%
[23]
  residual activity: 101%
[24]
  residual activity: 111%
[25]
  residual activity: 89.1%
[26]
  residual activity: 101%
[27]
  residual activity: 96.6%
[28]
  residual activity: 105%
[29]
  residual activity: 84.3%
[30]
  residual activity: 38.7%
[31]
  residual activity: 95.1%
[32]
  residual activity: 105%
[33]
  residual activity: 100%
[34]
  residual activity: 81.3%
[35]
  residual activity: 106%
[36]
  residual activity: 99.7%
[37]
  residual activity: 104%
[38]
  residual activity: 100%
[39]
  residual activity: 96.7%
